# Values quoted from earlier work in US20170035778A1, “FORMULATIONS AND USES FOR MICROPARTICLE DELIVERY OF METALLOPORPHYRINS” (The Board of Trustees of the Leland Stanford Junior …, priority 2015, published 2017).
# Details: SnMP within 24 h of birth in premature newborns
substance,measurement,value
tin mesoporphyrin [SnMP],reduction of the requirement for phototherapy compared with control subjects,approximately 75%
